According to patent publication US20220313698A1, “MODULATORS OF CYSTIC FIBROSIS TRANSMEMBRANE CONDUCTANCE REGULATOR” (Vertex Pharmaceuticals Incorporated, priority 2019, published 2022):

Molecular target: CFTR-mediated chloride transport (Homo sapiens, UniProt P13569)
Assay: Corrector Assay A - membrane potential dye assay (enteroid cells)
Conditions: for Corrector Assay A % activity: % of chloride transport of triple combination control (1 μM (14S)-dispiro macrocycle + 3 μM tezacaftor + 300 nM ivacaftor); for EC50: read-out: Corrector Assay A EC50, human intestinal enteroid cells, 18-24 h incubation, acute 10 μM forskolin + 300 nM ivacaftor

Row | Corrector Assay A % activity | EC50 [nM] | SMILES
1 | +++ (+++ is >60%) | < 1000 | CCOc1cccc(-c2ccc3c(n2)N2C[C@@H](CC[C@H](c4ccccn4)Nc4cccc(n4)S(=O)(=O)NC3=O)CC2(C)C)n1 [Compound 316]
2 | ++ (++ is 30-60%) | < 1000 | CCOc1cccc(-c2ccc3c(n2)N2C[C@@H](CC[C@@H](c4ccccn4)Nc4cccc(n4)S(=O)(=O)NC3=O)CC2(C)C)n1 [Compound 317]
3 | +++ (+++ is >60%) | < 1000 | CC1(C)C[C@@H]2CC[C@H](c3ccccn3)Nc3cccc(n3)S(=O)(=O)NC(=O)c3ccc(-c4cccc(F)n4)nc3N1C2 [Compound 318, (14S,17R)-8-(6-fluoropyridin-2-yl)-12,12-dimethyl-17-(pyridin-2-yl)-2λ^6-thia-3,9,11,18,23-pentaazatetracyclo[17.3.1.111,14.05,10]tetracosa-1(22),5,7,9,19(23),20-hexaene-2,2,4-trione]
4 | +++ (+++ is >60%) | < 1000 | CC1(C)C[C@@H]2CC[C@H](c3ccccn3)Nc3cccc(n3)S(=O)(=O)NC(=O)c3ccc(C4CCC(F)(F)CC4)nc3N1C2 [Compound 324, (14S,17R)-8-(4,4-Difluorocyclohexyl)-12,12-dimethyl-17-(pyridin-2-yl)-2λ^6-thia-3,9,11,18,23-pentaazatetracyclo[17.3.1.111,14.05,10]tetracosa-1(22),5,7,9,19(23),20-hexaene-2,2,4-trione]
5 | +++ (+++ is >60%) | < 1000 | CC1(C)C[C@@H]2CC[C@H](c3ccccn3)Nc3cccc(n3)S(=O)(=O)NC(=O)c3ccc(C4=CCC(F)(F)CC4)nc3N1C2 [Compound 325, (14S,17R)-8-(4,4-Difluorocyclohex-1-en-1-yl)-12,12-dimethyl-17-(pyridin-2-yl)-2λ^6-thia-3,9,11,18,23-pentaazatetracyclo[17.3.1.111,14.05,10]tetracosa-1(22),5,7,9,19(23),20-hexaene-2,2,4-trione]
6 | +++ (+++ is >60%) | < 1000 | CC1(C)CCC(c2ccc3c(n2)N2C[C@@H](CC[C@H](c4ccccn4)Nc4cccc(n4)S(=O)(=O)NC3=O)CC2(C)C)CC1 [Compound 326]
7 | +++ (+++ is >60%) | < 1000 | CC1(C)C[C@@H]2CC[C@H](c3ccccn3)Nc3cccc(n3)S(=O)(=O)NC(=O)c3ccc(C4CCCCC4)nc3N1C2 [Compound 328]
8 | +++ (+++ is >60%) | < 1000 | CC1(C)C[C@@H]2CC[C@H](c3ccccn3)Nc3cccc(n3)S(=O)(=O)NC(=O)c3ccc(C4=CCCCC4)nc3N1C2 [Compound 329]
9 | +++ (+++ is >60%) | 1000 to 3000 | CC(C)N1CCN(c2ccc3c(n2)N2C[C@@H](CC[C@H](c4ccccn4)Nc4cccc(n4)S(=O)(=O)NC3=O)CC2(C)C)C1=O [Compound 332]
10 | +++ (+++ is >60%) | < 1000 | CC1(C)C[C@@H]2CC[C@H](c3ccccn3)Nc3cccc(n3)S(=O)(=O)NC(=O)c3ccc(-n4ccc(OCC5CC5)n4)nc3N1C2 [Compound 334]
11 | +++ (+++ is >60%) | < 1000 | COc1cccc(-c2ccc3c(n2)N2C[C@@H](CC[C@H](c4ccccn4)Nc4cccc(n4)S(=O)(=O)NC3=O)CC2(C)C)n1 [Compound 337]
12 | +++ (+++ is >60%) | < 1000 | CC1(C)C[C@@H]2CC[C@H](c3ccccn3)Nc3cccc(n3)S(=O)(=O)NC(=O)c3ccc(-c4c(Cl)cccc4Cl)nc3N1C2 [Compound 341]
13 | ++ (++ is 30-60%) | < 1000 | CC1(C)C[C@@H]2CC[C@@H](c3ccccn3)Nc3cccc(n3)S(=O)(=O)NC(=O)c3ccc(-c4c(Cl)cccc4Cl)nc3N1C2 [Compound 342]
14 | ++ (++ is 30-60%) | < 1000 | CC1(C)C[C@@H]2CC[C@@H](c3ccccn3)Nc3cccc(n3)S(=O)(=O)NC(=O)c3ccc(-c4c(F)cccc4Cl)nc3N1C2 [Compound 344]
15 | ++ (++ is 30-60%) | < 1000 | CC(C)n1cc(-c2ccc3c(n2)N2C[C@@H](CC[C@H](c4ccccn4)Nc4cccc(n4)S(=O)(=O)NC3=O)CC2(C)C)cn1 [Compound 346]
16 | +++ (+++ is >60%) | < 1000 | CC(C)c1ccc(-c2ccc3c(n2)N2C[C@@H](CC[C@H](c4ccccn4)Nc4cccc(n4)S(=O)(=O)NC3=O)CC2(C)C)cc1 [Compound 347]
17 | +++ (+++ is >60%) | < 1000 | CC1(C)C[C@@H]2CC[C@H](c3ccccn3)Nc3cccc(n3)S(=O)(=O)NC(=O)c3ccc(C4CC4)nc3N1C2 [Compound 349]
18 | +++ (+++ is >60%) | < 1000 | CC1(C)C[C@@H]2CCC(c3ccccn3)Nc3cccc(n3)S(=O)(=O)NC(=O)c3ccc(-n4ccc(OCCC5C6(CC6)C56CC6)n4)nc3N1C2 (stereo partly drawn) [Compound 355, (14S)-8-[3-(2-{dispiro[2.0.2.1]heptan-7-yl}ethoxy)-1H-pyrazol-1-yl]-12,12-dimethyl-17-(pyridin-2-yl)-2λ^6-thia-3,9,11,18,23-pentaazatetracyclo[17.3.1.111,14.05,10]tetracosa-1(22),5,7,9,19(23),20-hexaene-2,2,4-trione]

The remaining lines, values behind:

Row | SMILES | Corrector Assay A % activity | EC50 [nM]
19 | CC(C)(C)CCOc1ccn(-c2ccc3c(n2)N2C[C@@H](CC[C@H](c4ccccn4)Nc4cccc(n4)S(=O)(=O)NC3=O)CC2(C)C)n1 [Compound 320, (14S,17R)-8-[3-(3,3-dimethylbutoxy)-1H-pyrazol-1-yl]-12,12-dimethyl-17-(pyridin-2-yl)-2λ^6-thia-3,9,11,18,23-pentaazatetracyclo[17.3.1.111,14.05,10]tetracosa-1(22),5,7,9,19(23),20-hexaene-2,2,4-trione] | +++ (+++ is >60%) | < 1000
20 | CC1(COc2ccn(-c3ccc4c(n3)N3C[C@@H](CC[C@H](c5ccccn5)Nc5cccc(n5)S(=O)(=O)NC4=O)CC3(C)C)n2)CC1 [Compound 321] | +++ (+++ is >60%) | < 1000
21 | CC(C)(C)COc1ccn(-c2ccc3c(n2)N2C[C@@H](CC[C@H](c4ccccn4)Nc4cccc(n4)S(=O)(=O)NC3=O)CC2(C)C)n1 [Compound 322] | ++ (++ is 30-60%) | < 1000
22 | CC(C)c1cnn(-c2ccc3c(n2)N2C[C@@H](CC[C@H](c4ccccn4)Nc4cccc(n4)S(=O)(=O)NC3=O)CC2(C)C)c1 [Compound 323] | ++ (++ is 30-60%) | < 1000
23 | CC1(C)CC=C(c2ccc3c(n2)N2C[C@@H](CC[C@H](c4ccccn4)Nc4cccc(n4)S(=O)(=O)NC3=O)CC2(C)C)CC1 [Compound 327] | +++ (+++ is >60%) | < 1000
24 | CC1(C)C[C@@H]2CC[C@H](c3ccccn3)Nc3cccc(n3)S(=O)(=O)NC(=O)c3ccc(C4CCC4)nc3N1C2 [Compound 330, (14S,17R)-8-cyclobutyl-12,12-dimethyl-17-(pyridin-2-yl)-2λ^6-thia-3,9,11,18,23-pentaazatetracyclo[17.3.1.111,14.05,10]tetracosa-1(22),5,7,9,19(23),20-hexaene-2,2,4-trione] | +++ (+++ is >60%) | < 1000
25 | CC1(C)C[C@@H]2CC[C@H](c3ccccn3)Nc3cccc(n3)S(=O)(=O)NC(=O)c3ccc(N4CCN(CC5CC5)C4=O)nc3N1C2 [Compound 331] | +++ (+++ is >60%) | < 1000
26 | CN1CCN(c2ccc3c(n2)N2C[C@@H](CC[C@H](c4ccccn4)Nc4cccc(n4)S(=O)(=O)NC3=O)CC2(C)C)C1=O [Compound 333] | +++ (+++ is >60%) | 1000 to 3000
27 | COc1ccn(-c2ccc3c(n2)N2C[C@@H](CC[C@H](c4ccccn4)Nc4cccc(n4)S(=O)(=O)NC3=O)CC2(C)C)n1 [Compound 335] | +++ (+++ is >60%) | < 1000
28 | CC(C)c1ccn(-c2ccc3c(n2)N2C[C@@H](CC[C@H](c4ccccn4)Nc4cccc(n4)S(=O)(=O)NC3=O)CC2(C)C)n1 [Compound 336] | +++ (+++ is >60%) | < 1000
29 | COc1cccc(-c2ccc3c(n2)N2C[C@@H](CC[C@@H](c4ccccn4)Nc4cccc(n4)S(=O)(=O)NC3=O)CC2(C)C)n1 [Compound 338] | +++ (+++ is >60%) | < 1000
30 | COc1cccc(-c2ccc3c(n2)N2C[C@@H](CC[C@H](c4ccccn4)Nc4cccc(n4)S(=O)(=O)NC3=O)CC2(C)C)c1 [Compound 339] | +++ (+++ is >60%) | < 1000
31 | COc1cccc(-c2ccc3c(n2)N2C[C@@H](CC[C@@H](c4ccccn4)Nc4cccc(n4)S(=O)(=O)NC3=O)CC2(C)C)c1 [Compound 340] | ++ (++ is 30-60%) | 1000 to 3000
32 | CC1(C)C[C@@H]2CC[C@H](c3ccccn3)Nc3cccc(n3)S(=O)(=O)NC(=O)c3ccc(-c4c(F)cccc4Cl)nc3N1C2 [Compound 343] | +++ (+++ is >60%) | < 1000
33 | CC(C)n1cc(-c2ccc3c(n2)N2C[C@@H](CC[C@@H](c4ccccn4)Nc4cccc(n4)S(=O)(=O)NC3=O)CC2(C)C)cn1 [Compound 345] | ++ (++ is 30-60%) | < 1000
34 | CC(C)c1ccc(-c2ccc3c(n2)N2C[C@@H](CC[C@@H](c4ccccn4)Nc4cccc(n4)S(=O)(=O)NC3=O)CC2(C)C)cc1 [Compound 348] | ++ (++ is 30-60%) | < 1000
35 | CC1(C)CC2CCC(c3ccccn3)Nc3cccc(n3)S(=O)(=O)NC(=O)c3ccc(-n4ccc(OCCC5C6(CC6)C56CC6)n4)nc3N1C2 [Compound 356, (14S)-8-13-(2-{dispiro[2.0.2.11heptan-7-yl}ethoxy)-1H-pyrazol-1-yl]-12,12-dimethyl-17-(pyridin-2-yl)-2λ^6-thia-3,9,11,18,23-pentaazatetracyclo[17.3.1.111,14.05,10]tetracosa-1(22),5,7,9,19(23),20-hexaene-2,2,4-trione] | +++ (+++ is >60%) | < 1000
